The values below come from patent US4423056A, “5(Aminomethyl)-4,5,6,7-tetrahydro[d]thiazole containing compositions for and medical use in treating circulatory insufficiencies” (Laboratoires Jacques Logeais, priority 1979, dated 1983).

Read-outs that look alike come from different tables or passages of the source.

A short description of series [1]: Acute toxicity in mice, LD50 oral and intraperitoneal. The conditions noted are these: mouse, in vivo. An excerpt: Most of the compounds of the formula (I) have low toxicity, as is apparent from following Table II in which are given the LD50 per os and i.p. in mice.
A further series has as its system collateral arteries. Kind of series: Acute occlusion of the femoral artery: resistance of the collateral arteries, systemic blood pressure, tissue perfusion pressure. It counts as in vivo, dogs. On the procedure: Thus, with some of the compounds, there was noted an increase of the arterial rate of flow from as low a dosage as 0.1-0.5 mg/kg i.v.
Where [2] appears, read: ip, read-out: Acute toxicity, intraperitoneal route LD50.
The mark [3] stands for this setting: po, per os, read-out: Acute toxicity, oral route LD50.

The term LD50 denotes the dose expected to kill half of the subjects tested. Regarding `NCC1CCCc2scnc21` (stereo not drawn) [Example 1, 4-Aminomethyl-4,5,6,7-tetrahydro-benzo[d]thiazole], the LD50 in series [1] (setting [2]) was 140 mg/kg; in series [1] (setting [3]), over 200 mg/kg.

`Cc1nc2c(s1)CC(CN)CC2` (stereo not drawn) [Example 17, 2-methyl-6-aminomethyl-4,5,6,7-tetrahydro-benzo[d]thiazole]: the LD50 in series [1] (setting [2]) and in series [1] (setting [3]) was over 200 mg/kg in each case.

Regarding `Cc1nc2c(s1)CCCC2CN` (stereo not drawn) [Example 3, 2-Methyl-4-aminomethyl-4,5,6,7-tetrahydro-benzo[d]thiazole], the 50% lethal dose (LD50) in series [1] (setting [3]) was over 200 mg/kg.

In the case of `Cc1nc2c(s1)CCC(CN)C2` (stereo not drawn) [Example 15, 2-methyl-5-aminomethyl-4,5,6,7-tetrahydro-benzo[d]thiazole], the LD50 in series [1] (setting [2]) and in series [1] (setting [3]) was over 200 mg/kg each time.

Regarding `CCCCc1nc2c(s1)CCC(CNC)C2` (stereo not drawn) [Example 12, 2-n-Butyl-5-(N-methylaminomethyl)-4,5,6,7-tetrahydrobenzo[d]thiazole], the figures for the LD50 in series [1] (setting [2]) and in series [1] (setting [3]) were 140 mg/kg and over 200 mg/kg, respectively.

With `CNCC1CCCc2scnc21` (stereo not drawn) [Example 2, 4-(N-Methylaminomethyl)-4,5,6,7-tetrahydro-benzo[d]thiazole], the median lethal dose (LD50) in series [1] (setting [2]) was at least 200 mg/kg; in series [1] (setting [3]), over 200 mg/kg.

On to `Cc1nc2c(s1)CCC(CNC(C)C)C2` (stereo not drawn) [Example 19, 2-methyl-5-(N--isopropylamino-methyl)-4,5,6,7-tetrahydro-benzo[d]thiazole], for which the LD50 in series [1] (setting [2]) and in series [1] (setting [3]) was over 200 mg/kg throughout.

In the case of `CNCC1CCc2scnc2C1` (stereo not drawn) [Example 5, 5-(N-Methylaminomethyl)-4,5,6,7-tetrahydro-benzo[d]thiazole], the LD50 in series [1] (setting [2]) and in series [1] (setting [3]) was over 200 mg/kg each time.

For `NCC1CCc2ncsc2C1` (stereo not drawn) [Example 8, 6-Aminomethyl-4,5,6,7-tetrahydro-benzo[d]thiazole], the LD50 in series [1] (setting [2]) and in series [1] (setting [3]) was over 200 mg/kg each time.

As for `CNCC1CCc2nc(C)sc2C1` (stereo not drawn) [Example 7, 2-Methyl-6-(N-methylaminomethyl)-4,5,6,7-tetrahydrobenzo[d]thiazole], the LD50 in series [1] (setting [2]) and in series [1] (setting [3]) was over 200 mg/kg throughout.

Turning to `NCC1CCc2scnc2C1` (stereo not drawn) [Example 14, 5-aminomethyl-4,5,6,7-tetrahydro-benzo[d]thiazole], the values for the LD50 in series [1] (setting [2]) and in series [1] (setting [3]) were over 200 mg/kg and at least 200 mg/kg, respectively.

Take `CNCC1CCc2sc(C(C)C)nc2C1` (stereo not drawn) [Example 13, 2-Isopropyl-5-(N-methylaminomethyl)-4,5,6,7-tetrahydrobenzo[d]thiazole]: the LD50 in series [1] (setting [2]) was 140 mg/kg; in series [1] (setting [3]), over 200 mg/kg.

As for `CCCCNCC1CCc2sc(C)nc2C1` (stereo not drawn) [Example 20], the results for the 50% lethal dose (LD50) in series [1] (setting [2]) and in series [1] (setting [3]) were 58 mg/kg and 145 mg/kg, respectively.

As to `CNCC1CCc2sc(C)nc2C1` (stereo not drawn) [Example 6, 2-Methyl-5-(N-methylaminomethyl)-4,5,6,7-tetrahydrobenzo[d]thiazole], the LD50 in series [1] (setting [3]) is over 200 mg/kg. In the series on collateral arteries, the “decrease of the resistance of the collateral arteries” value is recorded as “marked decrease”, the “effect on systemic blood pressure” value is listed as “without substantially affecting” and the “effect on tissue perfusion pressure” value is reported as “without substantially affecting”.

For the compound `CCCCc1nc2c(s1)CCCC2CNC` (stereo not drawn) [Example 11, 2-n-Butyl-4-(N-methylaminomethyl)4,5,6,7-tetrahydro-benzo[d]thiazole], the LD50 in series [1] (setting [2]) came to 58 mg/kg. In series [1] (setting [3]), the LD50 was at least 200 mg/kg. In addition, in the series on collateral arteries, the “decrease of the resistance of the collateral arteries” value is reported as “marked decrease”, the “effect on systemic blood pressure” value is listed as “without substantially affecting” and the “effect on tissue perfusion pressure” value is “without substantially affecting”.

For `CCCNCC1CCc2ncsc2C1` (stereo not drawn) [Example 10, 6-(N-n-Propylaminomethyl)-4,5,6,7-tetrahydro-benzo[d]thiazole], the LD50 in series [1] (setting [2]) was 190 mg/kg; in series [1] (setting [3]), over 200 mg/kg.

In the case of `CCCCNCC1CCCc2sc(C)nc21` (stereo not drawn) [Example 18, 2-methyl-4-(N--n-butylamino-methyl)-4,5,6,7-tetrahydro-benzo[d]thiazole], the LD50 is 58 mg/kg in series [1] (setting [2]) and over 200 mg/kg in series [1] (setting [3]).

Take `CNCC1CCc2ncsc2C1` (stereo not drawn) [Example 16, 6-(N--methylaminomethyl)-4,5,6,7-tetrahydro-benzo[d]thiazole]: the LD50 in series [1] (setting [2]) worked out at 75 mg/kg; in series [1] (setting [3]), 170 mg/kg.

As to `CCNCC1CCc2nc(CC)sc2C1` (stereo not drawn) [Example 9, 2-Ethyl-6-(N-ethylaminomethyl)-4,5,6,7-tetrahydrobenzo[d]thiazole], the LD50 in series [1] (setting [2]) was 120 mg/kg; in series [1] (setting [3]), over 200 mg/kg.
